Experimental data from US10150737B2, “Compounds for controlling arthropods” (priority 2013, dated 2018).

Tests used:
Boophilus microplus = Boophilus microplus - injection test; assay type: in vivo; conditions: application rate 20 μg/animal; injection into engorged adult female ticks; after 7 days
Method in brief: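 Active ingredient in DMSO, 1 μl injected into the abdomen of 5 engorged adult female ticks, then held in a climate-controlled room. Efficacy scored after 7 days from laying of fertile eggs, with non-fertile-looking eggs kept about 42 days for larval hatch; 100% means no fertile eggs.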

Rhipicephalus sanguineus = Rhipicephalus sanguineus - in vitro contact tests with adult brown dog ticks; assay type: in vivo; conditions: application rate 5 μg/cm2; after 48 h; ticks dead or moribund
Method in brief: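 Test tubes coated with active ingredient in acetone, 5 μg/cm^2 at 900 ppm. 5-10 adult ticks per tube, kept dark at room temperature for 48 h. Ticks then heated at 45-50° C ≤5 min; motionless or uncoordinated ticks scored dead/moribund, efficacy as % dead or moribund.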

Musca domestica = Musca domestica test; assay type: in vivo; conditions: application rate 100 ppm; adult houseflies; after 2 days
Method in brief: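 Compound dissolved in DMSO (10 mg per 0.5 ml) and diluted with water to the test concentration. Sponges soaked with sugar solution plus formulation were offered to 10 adult houseflies per vessel. Mortality (% kill, 100% = all dead, 0% = none) scored after 2 days.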

Ctenocephalides felis [1] = experiment: Ctenocephalides felis - oral test; assay type: in vivo; conditions: application rate 100 ppm in citrated cattle blood; after 2 days
Method in brief: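 Compound in DMSO diluted into citrated cattle blood, fed through a parafilm membrane to about 20 unfed adult cat fleas. Kill in % scored after 2 days (100% = all dead).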

Lucilia cuprina = Lucilia cuprina test; assay type: in vivo; conditions: application rate 100 ppm; L1 larvae; after 2 days
Method in brief: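 About 20 L1 larvae placed on minced horsemeat treated with compound, formulated in DMSO and diluted with water to test concentration. Kill in % scored after 2 days (100% = all larvae dead, 0% = none).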

Tetranychus urticae = Tetranychus urticae - spray test, OP-resistant; assay type: in vivo; conditions: bean leaf discs, after 6 days
Method in brief: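 Compound dissolved in acetone/DMF, diluted with water containing 1000 ppm alkylaryl polyglycol ether emulsifier to test concentrations. Bean leaf discs infested with all stages of spider mites were sprayed; % kill determined after 6 days (100% = all mites dead, 0% = none).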

Spodoptera frugiperda = Spodoptera frugiperda - spray test; assay type: in vivo; conditions: caterpillars on maize leaf discs, after 7 days
Method in brief: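 Maize leaf discs sprayed with compound formulated in acetone/DMF and diluted in water containing 1000 ppm alkylaryl polyglycol ether emulsifier, then infested with armyworm caterpillars after drying. Efficacy scored after 7 days as % caterpillars killed (100% all, 0% none).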

Phaedon cochleariae = Phaedon cochleariae - spray test; assay type: in vivo; conditions: larvae on Chinese cabbage leaf discs, after 7 days
Method in brief: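 Chinese cabbage leaf discs sprayed with compound formulated in acetone/DMF and water containing 1000 ppm emulsifier; once dry, infested with mustard beetle larvae. Efficacy (% larvae killed) scored after 7 days.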

[2] = test system: Boophilus microplus Parkhurst strain, SP-resistant; experiment: Boophilus microplus - dip test; assay type: in vivo; conditions: application rate 100 ppm; dip of engorged adult female ticks; after 7 days
Method in brief: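 SP-resistant Parkhurst strain engorged adult female Boophilus microplus (8-10 per tube) dipped in DMSO-based compound dilutions in water, then kept in a climate-controlled room. Efficacy scored after 7 days from fertile egg laying, with larval hatch checked after about 42 days; 100% means no fertile eggs.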

Ctenocephalides felis [3] = experiment: Ctenocephalides felis - in vitro contact tests with adult cat fleas; assay type: in vivo; conditions: application rate 5 μg/cm2 (=500 g/ha); after 48 h; fleas dead or moribund
Method in brief: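 Tubes coated with compound in acetone (250 μl of 900 ppm solution gives 5 μg/cm^2 on 44.7 cm^2), solvent evaporated, then 5–10 adult fleas added and kept horizontal at room temperature and ambient humidity. After 48 h, dead or moribund (motionless/uncoordinated) fleas scored as % efficacy.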

Amblyomma hebraeum = experiment: Amblyomma hebaraeum test (tick nymphs, immersion); assay type: in vivo; conditions: application rate 100 ppm; tick nymphs immersed one minute; after 42 days
Method in brief: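 Tick nymphs immersed for one minute in compound diluted in water from a DMSO concentrate, then held on filter paper in a Petri dish in a climate-controlled cabinet. Kill (%) scored after 42 days; 100% means all ticks dead, 0% none.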

Myzus persicae = Myzus persicae - spray test; assay type: in vivo; conditions: Chinese cabbage leaf discs, after 6 days
Method in brief: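 Chinese cabbage leaf discs carrying all stages of Myzus persicae sprayed with compound in acetone/DMF diluted in water with 1000 ppm emulsifier. Efficacy (% aphids killed) assessed after 6 days.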

[4] = logP determination by HPLC on a reversed-phase column (C18); assay type: physicochemical; conditions: for logP^a): HPLC-MS method a); for log P: HPLC-MS
[5] = reversed-phase column (C18), Table I-T3

| SMILES | efficacy (laying of fertile eggs) (Boophilus microplus) | efficacy (Rhipicephalus sanguineus) | efficacy (kill) (Musca domestica) | efficacy (kill) (Ctenocephalides felis [1]) | efficacy (kill) (Lucilia cuprina) | efficacy (Tetranychus urticae; application rate 500 g/ha) | efficacy (Spodoptera frugiperda; application rate 500 g/ha) | efficacy (Phaedon cochleariae; application rate 500 g/ha) | efficacy (laying of fertile eggs) [2] | efficacy (Ctenocephalides felis [3]) | efficacy (kill) (Amblyomma hebraeum) | efficacy (Myzus persicae; application rate 500 g/ha) | logP^a) [4] | log P [4, 5] | efficacy (Tetranychus urticae; application rate 100 g/ha) | efficacy (Spodoptera frugiperda; application rate 100 g/ha) | efficacy (Phaedon cochleariae; application rate 100 g/ha) | efficacy (Myzus persicae; application rate 100 g/ha) | logP^a) [4, 5] | logP^a) ([4]; reversed-phase column (C18)) |
| --- | --- | --- | --- | --- | --- | --- | --- | --- | --- | --- | --- | --- | --- | --- | --- | --- | --- | --- | --- | --- |
| Cc1ncc(-c2cnn(-c3c(Cl)cc(C(F)(C(F)(F)F)C(F)(F)F)cc3Cl)c2)cc1C(=O)NC1(C#N)CC1 [I-T3-92] | 100% | 80% | 100% | 100% | 100% | 100% | 100% | 100% | 100% | 100% | 100% | 100% | 3.4 | 3.4 |  |  |  |  |  |  |
| CCc1cc(C(F)(F)C(F)(F)F)cc(C)c1-n1cc(-c2ccc(Cl)c(C(=O)NC3CC3)c2)cn1 [I-T3-81] | 100% | 100% | 90% | 100% | 100% |  |  |  | 100% | 100% | 100% |  | 4.3 |  | 100% | 100% | 100% | 90% | 4.3 |  |
| O=C(NC1CC1)c1cc(-c2cnn(-c3c(Cl)cc(C(F)(C(F)(F)F)C(F)(F)F)cc3OC(F)(F)F)c2)ccc1Cl [I-T3-162] | 100% | 100% | 100% | 100% | 100% |  |  |  | 100% | 100% | 100% |  |  | 4.6 | 100% | 100% | 100% | 100% |  | 4.6 |
| Cc1cc(C(F)(C(F)(F)F)C(F)(F)F)cc(C(F)(F)F)c1-n1cc(-c2cnc(Cl)c(C(=O)NC3CC3)c2)cn1 [I-T3-106] | 100% | 100% | 100% | 100% | 100% | 100% | 100% | 100% | 100% | 100% | 100% | 100% |  | 4.0 |  |  |  |  |  | 4.0 |
| Cc1cc(C(F)(C(F)(F)F)C(F)(F)F)cc(C(F)(F)F)c1-n1cc(-c2cnc(C)c(C(=O)NC3(C#N)CC3)c2)cn1 [I-T3-119] | 100% | 100% | 100% | 100% | 100% | 100% | 100% | 100% | 100% | 100% | 100% | 90% |  | 3.6 |  |  |  |  |  | 3.6 |
| Cc1ncc(-c2cnn(-c3c(Cl)cc(C(F)(C(F)(F)F)C(F)(F)F)cc3Cl)c2)cc1C(=O)NC1CC1 [I-T3-91] | 100% | 100% | 100% | 100% | 100% | 100% | 100% | 100% | 100% | 100% | 100% | 90% | 3.3 | 3.3 |  |  |  |  |  |  |
